The record followed here is patent US8242275B2, “Bicyclic pyrazole compounds as antibacterial agents” (Janssen Pharmaceutica NV, priority 2005, dated 2012).

In brackets after ≈: the same amount, converted by molar mass. Where two headings read alike, the source gives them in different places.

In general, MIC refers to the lowest concentration found to suppress growth. As usually defined, the IC50 is the concentration that gives 50% inhibition.

Assay [1] concerns E. coli KL-16 (GSC strain 4245). Description: In vitro antibacterial activity (MIC assay), broth microdilution. Format: cell-based. To be noted: Escherichia coli. Here is the method: (§1) Minimal inhibitory concentration (MIC) has been an indicator of in vitro antibacterial activity widely used in the art. The in vitro antibacterial activity of the compounds was determined by the broth microdilution method described by the National Committee for Clinical Laboratory Standards (NCCLS) in the NCCLS Document M7-A5, Vol. 20, No. 2, “Methods for Dilution Antimicrobial Susceptibility Test for Bacteria that Grow Aerobically—Fifth Edition”, which is incorporated herein by reference.
(§2) In this method, an aliquot of test compound from an 11-point series of 2-fold serial dilutions of compounds in 100% DMSO was added to wells in microdilution plates. The test organisms were prepared by adjusting the turbidity of actively growing broth cultures so that the final concentration of test organism after addition to wells with or without compounds was approximately 5×10^5 CFU/mL.
(§3) Following inoculation of the microdilution plates, the plates were incubated at 35° C. for 16-24 h and then scored for bacterial growth. […] The amount of growth in the wells containing the test compound was compared with the amount of growth in the growth-control wells (no test compound used) in each plate, and with the amount of growth in the wells containing control compounds (such as ciprofloxacin). Compounds of the present invention were tested against several bacterial strains. The MIC values (in μg/mL) are presented in Table 1 for Gram-negative (E. coli KL-16 (GSC strain 4245); data marked as (*) was obtained with E. coli ATCC25922) and Gram-positive bacteria (S. aureus ATCC13709; S. pneumoniae ATCC49619).

The test system of a further assay is S. aureus ATCC13709. The assay is described as above. The class given is cell-based. To be noted: Staphylococcus aureus, ATCC13709; read-out: S. aureus ATCC13709 MIC. Here is the method: as §1, §2, §3
The subject of a further assay is S. pneumoniae ATCC49619. The description is as above. The class given is cell-based. To be noted: Streptococcus pneumoniae, ATCC49619; read-out: S. pneumoniae ATCC49619 MIC. As to the method:
as §1, §2, §3

The target of the next assay is T1, E. coli DNA gyrase (Escherichia coli, UniProt P0AES4+P0AES6).
T1 construct: purchased John Innes Enterprises Ltd. (John Innes Centre, UK)
T1 sequence (P0AES4 whole entry, one chain of several): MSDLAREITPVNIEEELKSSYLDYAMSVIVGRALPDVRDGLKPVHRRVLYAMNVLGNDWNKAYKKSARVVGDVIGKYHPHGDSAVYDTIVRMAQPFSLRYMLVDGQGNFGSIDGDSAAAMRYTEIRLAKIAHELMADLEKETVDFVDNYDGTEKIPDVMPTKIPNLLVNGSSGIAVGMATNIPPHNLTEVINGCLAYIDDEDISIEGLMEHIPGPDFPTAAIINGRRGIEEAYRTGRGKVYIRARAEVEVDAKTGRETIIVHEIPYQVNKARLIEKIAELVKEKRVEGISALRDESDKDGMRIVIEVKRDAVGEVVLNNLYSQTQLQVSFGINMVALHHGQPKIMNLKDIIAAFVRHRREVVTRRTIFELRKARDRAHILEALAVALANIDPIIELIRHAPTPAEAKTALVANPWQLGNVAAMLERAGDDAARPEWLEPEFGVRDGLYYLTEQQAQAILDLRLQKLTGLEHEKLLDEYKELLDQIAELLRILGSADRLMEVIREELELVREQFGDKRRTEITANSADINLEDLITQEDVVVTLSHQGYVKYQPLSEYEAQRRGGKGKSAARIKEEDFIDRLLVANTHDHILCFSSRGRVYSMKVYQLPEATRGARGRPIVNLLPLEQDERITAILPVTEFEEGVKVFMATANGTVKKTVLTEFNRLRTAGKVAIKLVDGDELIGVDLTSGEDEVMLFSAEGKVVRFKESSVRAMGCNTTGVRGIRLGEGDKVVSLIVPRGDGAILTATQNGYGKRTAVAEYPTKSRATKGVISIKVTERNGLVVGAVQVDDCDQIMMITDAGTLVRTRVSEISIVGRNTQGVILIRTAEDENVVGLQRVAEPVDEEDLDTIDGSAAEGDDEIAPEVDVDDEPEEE
Nature of the assay: DNA gyrase inhibition assay (supercoiling). The class given is biochemical. Here is the method:
Inhibition of the supercoiling activity of E. coli DNA gyrase was determined using enzymes, buffers and substrates received from John Innes Enterprises Ltd. (John Innes Centre, UK). The reactions were performed according to the manufacturer's directions, with the following modifications.
DNA supercoiling reactions were carried out in a total reaction volume of 20 μL containing 250 ng of relaxed pBR322, 35 mM Tris-HCl (pH 7.5), 24 mM KCl, 4 mM MgCl2, 2 mM dithiothreitol, 1.8 mM spermidine, 1 mM ATP, 6.5% glycerol and 100 μg/mL albumin. Compounds diluted in 10% DMSO were added to the reaction mixture to reach a final concentration of 0.5% DMSO. Enzyme was diluted to […] in a solution of 50 mM Tris-HCl (pH 7.5), 100 mM KCl, 2 mM dithiothreitol, 1 mM EDTA, and 50% glycerol. Diluted enzyme (0.2 unit) was added to each reaction.
The reactions were incubated at 37° C. for 30 min. The reactions were then cooled to 0° C., followed by addition of 3 μL of 40% glycerol, 100 mM Tris-HCl (pH 7.5), 50 mM EDTA, 0.5% SDS and 0.1% bromophenol blue. Samples were separated on 1.0% agarose gels. Gels were stained with Ethidium bromide and photographed with a Stratagene Eagle Eye II.

The mark [2] stands for this setting: E. coli DNA gyrase supercoiling, visual inspection of gels, read-out: DNA Gyrase IC50 (converted).

As for `COc1ccc2nccc(-n3cc4c(n3)CCC(NC(=O)/C=C/c3ccc(Cl)c(Cl)c3)C4)c2n1` (stereo not drawn) [Example 92, 3-(3,4-Dichloro-phenyl)-N-[2-(6-methoxy-[1,5]naphthyridin-4-yl)-4,5,6,7-tetrahydro-2H-indazol-5-yl]-acrylamide], the MIC was more than 128 µg/mL in assay [1], 0.5 µg/mL (≈ 1.01 µM) with S. aureus ATCC13709 and more than 128 µg/mL in the assay on S. pneumoniae ATCC49619. The IC50 at E. coli DNA gyrase (setting [2]) is more than 32.4 µM.
Take `COc1ccc2nccc(-n3cc4c(n3)CCC(NCc3cc(F)c5c(c3)OCCO5)C4)c2c1` (stereo not drawn) [Example 100, (8-Fluoro-2,3-dihydro-benzo[1,4]dioxin-6-ylmethyl)-[2-(6-methoxy-quinolin-4-yl)-4,5,6,7-tetrahydro-2H-indazol-5-yl]-amine]: the minimal inhibitory concentration (MIC) in assay [1] was determined as 16 µg/mL (≈ 34.7 µM); with S. aureus ATCC13709, 0.25 µg/mL (≈ 0.543 µM); in the assay on S. pneumoniae ATCC49619, 0.5 µg/mL (≈ 1.09 µM). Moreover, at E. coli DNA gyrase (setting [2]), the IC50 is 1.09 µM.
Turning to `COc1ccc2nccc(-n3cc4c(n3)CCC(NCc3ccc(N5CCCC5)cc3)C4)c2n1` (stereo not drawn) [Example 87, [2-(6-Methoxy-[1,5]naphthyridin-4-yl)-4,5,6,7-tetrahydro-2H-indazol-5-yl]-(4-pyrrolidin-1-yl-benzyl)-amine], the minimal inhibitory concentration (MIC) in assay [1] was found to be 64 µg/mL (≈ 141 µM); in the assay with S. aureus ATCC13709 it was 2 µg/mL (≈ 4.4 µM); in the assay on S. pneumoniae ATCC49619, 8 µg/mL (≈ 17.6 µM). Moreover, the IC50 on E. coli DNA gyrase (setting [2]) was 4.4 µM.
Regarding `COc1ccc2nccc(-n3cc4c(n3)CCC(NC(=O)c3ccc([N+](=O)[O-])cc3F)C4)c2c1` (stereo not drawn) [Example 118, 2-Fluoro-N-[2-(6-methoxy-quinolin-4-yl)-4,5,6,7-tetrahydro-2H-indazol-5-yl]-4-nitro-benzamide], the results for the MIC (in assay [1]; in the assay with S. aureus ATCC13709; with S. pneumoniae ATCC49619) were more than 128 µg/mL, 4 µg/mL (≈ 8.67 µM) and more than 128 µg/mL, respectively. Moreover, at E. coli DNA gyrase (setting [2]), the half-maximal inhibitory concentration (IC50) was more than 34.7 µM.
Take `COc1ccc2nccc(-n3cc4c(n3)CCC(N(Cc3ccccc3)Cc3ccc5c(c3)NC(=O)CS5)C4)c2n1` (stereo not drawn) [Example 66, 6-({Benzyl-[2-(6-methoxy-[1,5]naphthyridin-4-yl)-4,5,6,7-tetrahydro-2H-indazol-5-yl]amino}-methyl)-4H-benzo[1,4]thiazin-3-one]: the MIC in assay [1] was more than 128 µg/mL; in the assay on S. aureus ATCC13709 it was 8 µg/mL (≈ 14.2 µM); with S. pneumoniae ATCC49619, more than 128 µg/mL. For the same compound, the half-maximal inhibitory concentration (IC50) at E. coli DNA gyrase (setting [2]) was 3.55 µM.
For `COc1ccc2nccc(-n3cc4c(n3)CCC(NC(=O)c3ccc(C(C)=O)s3)C4)c2c1` (stereo not drawn) [Example 73, 5-Acetyl-thiophene-2-carboxylic acid [2-(6-methoxy-quinolin-4-yl)-4,5,6,7-tetrahydro-2H-indazol-5-yl]-amide], the MIC was more than 128 µg/mL in assay [1], 4 µg/mL (≈ 8.96 µM) with S. aureus ATCC13709 and 64 µg/mL (≈ 143 µM) in the assay on S. pneumoniae ATCC49619. In addition, on E. coli DNA gyrase (setting [2]), the IC50 was more than 35.8 µM.
As for `COc1ccc2nccc(-n3cc4c(n3)CCC(NCc3cc(F)c5c(c3)OCCO5)C4)c2n1` (stereo not drawn) [Example 101, (8-Fluoro-2,3-dihydro-benzo[1,4]dioxin-6-ylmethyl)-[2-(6-methoxy-[1,5]naphthyridin-4-yl)-4,5,6,7-tetrahydro-2H-indazol-5-yl]-amine], the values for the MIC (in assay [1]; in the assay on S. aureus ATCC13709; in the assay with S. pneumoniae ATCC49619) were 4 µg/mL (≈ 8.67 µM), 0.125 µg/mL (≈ 0.271 µM) and 1 µg/mL (≈ 2.17 µM), respectively. Moreover, at E. coli DNA gyrase (setting [2]), the IC50 is 0.542 µM.
With `COc1ccc2nccc(-n3cc4c(n3)CCC(NCC(=O)Nc3cc(F)cc(F)c3)C4)c2c1` (stereo not drawn) [Example 61, N-(3,5-Difluoro-phenyl)-2-[2-(6-methoxy-quinolin-4-yl)-4,5,6,7-tetrahydro-2H-indazol-5-ylamino]-acetamide], the minimal inhibitory concentration (MIC) in assay [1] was determined as 16 µg/mL (≈ 34.5 µM); in the assay on S. aureus ATCC13709, 0.5 µg/mL (≈ 1.08 µM); in the assay on S. pneumoniae ATCC49619 it was 8 µg/mL (≈ 17.3 µM). Also, the IC50 on E. coli DNA gyrase (setting [2]) is 4.32 µM.
With `COc1ccc2nccc(-n3cc4c(n3)CCC(NC(=O)/C=C/c3cccc([N+](=O)[O-])c3)C4)c2n1` (stereo not drawn) [Example 14, N-[2-(6-Methoxy-[1,5]naphthyridin-4-yl)-4,5,6,7-tetrahydro-2H-indazol-5-yl]-3-(3-nitro-phenyl)-acrylamide], the results for the MIC (in assay [1]; in the assay with S. aureus ATCC13709; with S. pneumoniae ATCC49619) were more than 128 µg/mL, 1 µg/mL (≈ 2.13 µM) and 16 µg/mL (≈ 34 µM), respectively. In addition, the IC50 at E. coli DNA gyrase (setting [2]) was 2.13 µM.
Take `COc1ccc2nccc(-n3cc4c(n3)CCN(C(=O)c3ccc5c(c3)NC(=O)CS5)CC4)c2n1` [Example 15, 6-[2-(6-Methoxy-[1,5]naphthyridin-4-yl)-4,5,7,8-tetrahydro-2H-1,2,6-triaza-azulene-6-carbonyl]-4H-benzo[1,4]thiazin-3-one]: the values for the minimal inhibitory concentration (MIC) (in assay [1]; with S. aureus ATCC13709; in the assay with S. pneumoniae ATCC49619) were more than 128 µg/mL, 1 µg/mL (≈ 2.06 µM) and 16 µg/mL (≈ 32.9 µM), respectively. The IC50 on E. coli DNA gyrase (setting [2]) was more than 65.8 µM.
Take `CCN(CC)c1ccc(CNC2CCc3nn(-c4ccnc5ccc(OC)nc45)cc3C2)cc1` (stereo not drawn) [Example 85, (4-Diethylamino-benzyl)-[2-(6-methoxy-[1,5]naphthyridin-4-yl)-4,5,6,7-tetrahydro-2H-indazol-5-yl]-amine]: the MIC in assay [1] amounted to 64 µg/mL (≈ 140 µM); in the assay with S. aureus ATCC13709, 8 µg/mL (≈ 17.5 µM); in the assay with S. pneumoniae ATCC49619 it was 8 µg/mL (≈ 17.5 µM). Moreover, the IC50 at E. coli DNA gyrase (setting [2]) was 4.38 µM.
In the case of `COc1ccc2nccc(-n3cc4c(n3)CCC(NCc3cc5c(cc3F)SCCN5)C4)c2c1` (stereo not drawn) [Example 106], the minimal inhibitory concentration (MIC) came to 8 µg/mL (≈ 16.8 µM) in assay [1], 0.5 µg/mL (≈ 1.05 µM) in the assay with S. aureus ATCC13709 and 1 µg/mL (≈ 2.1 µM) in the assay with S. pneumoniae ATCC49619. This compound had a half-inhibitory concentration (IC50) on E. coli DNA gyrase of 4.21 µM.
In the case of `COc1ccc2nccc(-n3cc4c(n3)CCC(NCc3cc5c(cc3Cl)OCO5)C4)c2n1` (stereo not drawn) [Example 105, N-((6-chlorobenzo[d][1,3]dioxol-5-yl)methyl)-2-(6-methoxy-1,5-naphthyridin-4-yl)-4,5,6,7-tetrahydro-2H-indazol-5-amine], the MIC is more than 128 µg/mL in assay [1], 0.5 µg/mL (≈ 1.08 µM) in the assay on S. aureus ATCC13709 and 4 µg/mL (≈ 8.62 µM) in the assay with S. pneumoniae ATCC49619. In addition, the concentration for half-maximal inhibition (IC50) on E. coli DNA gyrase (setting [2]) is 4.31 µM.
On to `COc1ccc2nccc(-n3cc4c(n3)CCC(NCc3ccc(N5CCCCC5)cc3)C4)c2n1` (stereo not drawn) [Example 86, [2-(6-Methoxy-[1,5]naphthyridin-4-yl)-4,5,6,7-tetrahydro-2H-indazol-5-yl]-(4-piperidin-1-yl-benzyl)-amine], for which the values for the MIC (in assay [1]; in the assay on S. aureus ATCC13709; in the assay with S. pneumoniae ATCC49619) were more than 128 µg/mL, 4 µg/mL (≈ 8.54 µM) and 4 µg/mL (≈ 8.54 µM), respectively. Moreover, on E. coli DNA gyrase (setting [2]), the IC50 was 4.27 µM.
For the compound `COc1ccc2nccc(-n3cc4c(n3)CCC(NC(=O)C(=O)c3cc5ccccc5[nH]3)C4)c2c1` (stereo not drawn) [Example 26, 2-(1H-Indol-2-yl)-N-[2-(6-methoxy-quinolin-4-yl)-4,5,6,7-tetrahydro-2H-indazol-5-yl]-2-oxo-acetamide], the minimum inhibitory concentration (MIC) is more than 128 µg/mL in assay [1], 0.25 µg/mL (≈ 0.537 µM) in the assay on S. aureus ATCC13709 and 2 µg/mL (≈ 4.3 µM) with S. pneumoniae ATCC49619. Besides, the IC50 at E. coli DNA gyrase (setting [2]) was more than 34.4 µM.
The corresponding values for `COc1ccc2nccc(-n3cc4c(n3)CCC(NC(=O)/C=C/c3cc(F)ccc3C(F)(F)F)C4)c2n1` (stereo not drawn) [Example 91, 3-(5-Fluoro-2-trifluoromethyl-phenyl)-N-[2-(6-methoxy-[1,5]naphthyridin-4-yl)-4,5,6,7-tetrahydro-2H-indazol-5-yl]-acrylamide] are more than 128 µg/mL, 4 µg/mL (≈ 7.82 µM), more than 128 µg/mL and more than 31.3 µM.
The corresponding values for `COc1ccc2nccc(-n3cc4c(n3)CCC(NC(=O)c3ccc(C)c([N+](=O)[O-])c3)C4)c2c1` (stereo not drawn) [Example 111, N-[2-(6-Methoxy-quinolin-4-yl)-4,5,6,7-tetrahydro-2H-indazol-5-yl]-4-methyl-3-nitro-benzamide] are more than 128 µg/mL, 0.25 µg/mL (≈ 0.546 µM), 4 µg/mL (≈ 8.74 µM) and more than 35 µM.
The corresponding values for `COc1ccc2nccc(-n3cc4c(n3)CCC(NC(=O)c3cc5ccccc5[nH]3)C4)c2c1` (stereo not drawn) [Example 21, 1H-Indole-2-carboxylic acid [2-(6-methoxy-quinolin-4-yl)-4,5,6,7-tetrahydro-2H-indazol-5-yl]-amide] are more than 128 µg/mL, 1 µg/mL (≈ 2.29 µM), 8 µg/mL (≈ 18.3 µM) and more than 36.6 µM.
